Drawing on US4877881A, “Process of preparing pyrazoles, isoxazoles and analogs thereof having activity as 5-lipoxygenase inhibitors” (Warner-Lambert Company, priority 1988, dated 1989), this text covers IC50 for three compounds.

This assay addresses T1, 5-lipoxygenase (Homo sapiens, UniProt P09917).
T1 construct: The formation of 5-HETE in human leukocytes is considered a measure of 5-lipoxygenase activity; endogenous in cells; host or cells: leukocytes isolated from fresh human blood
T1 sequence (P09917 1-674): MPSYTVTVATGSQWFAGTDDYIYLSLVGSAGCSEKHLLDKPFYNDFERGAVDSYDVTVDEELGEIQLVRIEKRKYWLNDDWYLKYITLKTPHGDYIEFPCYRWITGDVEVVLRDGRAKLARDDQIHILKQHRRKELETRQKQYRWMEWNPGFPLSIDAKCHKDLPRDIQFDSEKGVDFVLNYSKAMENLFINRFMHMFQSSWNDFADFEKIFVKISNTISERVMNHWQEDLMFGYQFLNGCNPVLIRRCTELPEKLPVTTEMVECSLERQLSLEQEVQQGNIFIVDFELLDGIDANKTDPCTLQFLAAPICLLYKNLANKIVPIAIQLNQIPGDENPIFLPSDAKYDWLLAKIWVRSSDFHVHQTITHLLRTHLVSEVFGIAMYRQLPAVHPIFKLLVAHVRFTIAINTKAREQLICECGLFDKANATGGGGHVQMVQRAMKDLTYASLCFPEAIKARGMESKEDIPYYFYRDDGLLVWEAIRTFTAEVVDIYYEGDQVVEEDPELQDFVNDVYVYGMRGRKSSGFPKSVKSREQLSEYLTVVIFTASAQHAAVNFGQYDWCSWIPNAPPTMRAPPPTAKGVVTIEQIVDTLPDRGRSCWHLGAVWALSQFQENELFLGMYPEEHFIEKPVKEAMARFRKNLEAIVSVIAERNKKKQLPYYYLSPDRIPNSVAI
The experiment in a line: 5-Lipoxygenase Assay Using Isolated Human Leukocytes (5LOA2), 5-HETE formation. Conditions: inhibition of 5-HETE formation, arachidonic acid 20 μM, A23187 10 μM, read-out: 5-LO(IC50 in μM). The format is cell-based. As for the experimental part:
5-Lipoxygenase Assay Using Isolated Human Leukocytes (5LOA2)
The formation of 5-HETE in human leukocytes is considered a measure of 5-lipoxygenase activity. The protocol is described in the following.
Fresh heparinized or EDTA treated human blood is mixed with 6% dextran-3% dextrose in isotonic saline in the ratio 0.25 ml dextran solution per 1.0 ml blood. After mixing the blood is allowed to sit at room temperature for about 90 minutes while the RBC's settle. During this period, the plasma is removed with a plastic pipette to nalgens tubes.
The pellet, consisting of leukocytes and erythrocytes, is treated with 10 ml 0.87% ammonium chloride at room temperature for four minutes, lysing the red cells. At the end of four minutes the cells are diluted with a 2x volume of phosphate buffered saline, pH 7.4, and centrifuged for ten minutes. The cells are washed three times with the phosphate buffered saline. Any of the pelleted cell matter which is not easily resuspended is discarded during the washings--the material contains platelets (12-lipoxygenase activity).
After washing, the cells are resuspended in phosphate buffered saline containing 1.0 mM 'calcium and 0.5 mM magnesium. After counting, the cells are diluted to 1.5-2.0×10^7 leukocytes per milliliter.
To each polypropylene reaction tube is added 0.48 ml leukocytes in Ca-Mg phosphate buffered saline, pH 7.4; 1-5 μl test compound dissolved in DMSO and buffer; or DMSO for control tubes.
The tubes preincubate at 37° C. for five minutes.
The reaction is started by adding 20 μl of the following, 0.5 μl, 20 mM arachidonic acid--final concentration=20 μM; 1 μl, 5 mM calcium ionophore A23187--final concentration=10 μM; and 18.5 μl buffer.
The reaction proceeds for five minutes, then is stopped by adding 0.5 ml, 0.5 mM ice-cold Tris buffer, pH 8.0. The tubes are chilled on ice for ten minutes and then extracted three times with a total of 3.5 ml ethyl acetate (3.0 ml removed).
The tubes can be stored at this point. For extended storage, the tubes should be filled with nitrogen.
The ethyl acetate is evaporated with a Sorvall Speed-Vac. The residue is dissolved in ethanol. The tubes can also be stored at this point at -20° C. under nitrogen.
A portion of the ethanol solution is injected into the HPLC system for 5-HETE quantitation.
Injections are made automatically with a Waters WISP 710B. The pump is a Spectra Physics SP8700. […] An RP C-18 column is used. The solvent system is isocratic; the solvent is 70% methanol and 30% 0.01M sodium acetate, pH 5.7, pumped at 1.0 ml/min. […] Using a 15 cm Alltech Nucleosil C-18 5 μM column provides for a sample turnaround time of about 16 minutes.
The IC50 is the concentration at which inhibition is half-maximal. On to `COc1cc(C=Cc2cc(C=Cc3ccc(O)c(OC)c3)[nH]n2)ccc1O` [Example 1, 3,5-Bis[β-(4'-hydroxy-3'-methoxyphenyl)ethenyl]pyrazole], for which the IC50 amounted to 1 µM. Then `COc1cc(C=Cc2cc(C)n[nH]2)ccc1O` [Example 5, 3-[β-(4'-Hydroxy-3'-methoxyphenyl)ethenyl]-5-methylpyrazole], with 7.1 µM; and `Cc1cc(C=Cc2ccc(O)c(Cl)c2)n[nH]1` [Example 7, 3-[β-(4'-Hydroxy-3'-chlorophenyl)ethenyl]-5-methylpyrazole], with 5.5 µM.
